According to ChEMBL document CHEMBL1201862, “PubChem BioAssay data set” (2004):
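Following 48 hours of exposure in 96-well plates, responses at five concentrations were used to interpolate endpoints linearly. Here, GI50 denotes the concentration required for 50% inhibition of growth.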 Activity calls are given as the source filed them. No stated cut-off is given here; in the data, active = GI50 up to about 1.1 µM and inactive = higher.

Key:
Test in all cases: DTP human tumour cell line panel, 48 h
[1] = tested on: 786-0
[2] = tested on: A498
[3] = tested on: ACHN
[4] = tested on: COLO 205
[5] = tested on: HCC 2998
[6] = tested on: HT-29
[7] = tested on: Hs-578T
[8] = tested on: IGROV-1
[9] = tested on: K562
[10] = tested on: KM12
[11] = tested on: MDA-MB-231
[12] = tested on: MOLT-4
[13] = tested on: Malme-3M
[14] = tested on: OVCAR-4
[15] = tested on: OVCAR-8
[16] = tested on: SF-539
[17] = tested on: SK-MEL-2
[18] = tested on: SNB-75
[19] = tested on: UACC-257

Measured: GI50

CC(C)(CN1CCCCC1)C(=O)CC(SCCS(=O)(=O)O)c1ccc(Cl)cc1 (stereo not drawn)
inactive: [1] 3.31 µM | [2] 4.26 µM | [3] 5.11 µM | [4] 2.86 µM | [5] 12.3 µM | [6] 3.52 µM | [7] 3.2 µM | [8] 6.15 µM | [9] 3.09 µM | [10] 4.31 µM | [11] 3.1 µM | [12] 2.92 µM | [13] 5.38 µM | [14] 3.84 µM | [15] 3.23 µM | [16] 2.3 µM | [17] 2.22 µM | [18] 4.32 µM | [19] 6.67 µM

C(=N/c1ccccc1C1SCCCS1)/c1ccccc1
inactive: [1] > 100 µM | [2] > 100 µM | [3] > 100 µM | [4] > 100 µM | [5] > 100 µM | [6] > 100 µM | [7] > 100 µM | [8] > 100 µM | [9] > 100 µM | [10] > 100 µM | [11] > 100 µM | [12] > 100 µM | [13] > 100 µM | [14] > 100 µM | [15] > 100 µM | [16] > 100 µM | [17] > 100 µM | [18] > 100 µM | [19] > 100 µM

O=C(NCC(=O)N1CCCC1C(=O)OC(=O)C1CCCN1C(=O)CNC(=O)OCc1ccccc1)OCc1ccccc1 (stereo not drawn)
inactive: [1] 47.6 µM | [2] 73.1 µM | [3] 36.2 µM | [4] 18.7 µM | [5] 32.7 µM | [6] 24.1 µM | [7] > 100 µM | [8] 33.8 µM | [9] 31 µM | [10] 18.2 µM | [11] 21.1 µM | [12] 16.8 µM | [13] 19.1 µM | [14] 40.6 µM | [15] 41.4 µM | [16] 24.5 µM | [17] 20.4 µM | [18] 14.9 µM | [19] 16.7 µM

COC(=O)C1=C(C(=O)OC)C2OC1C1C2C2(C)C(C)=C(C)C1(C)[S+]2[O-] (stereo not drawn)
inactive: [1] 4.65 µM | [2] 27.5 µM | [3] 2.83 µM | [4] 6.43 µM | [5] 20.1 µM | [6] 6.47 µM | [7] 20.8 µM | [8] 16.7 µM | [9] 4.9 µM | [10] 19 µM | [11] 22.5 µM | [12] 2.02 µM | [13] 6.98 µM | [14] 12.1 µM | [15] 5.15 µM | [16] 5.51 µM | [17] 10.8 µM | [18] 19.5 µM | [19] 12.4 µM

C=Cc1c(C)c(OC)cc2c1Oc1ccc(OC)c(C)c1CC2
inactive: [1] > 100 µM | [2] > 100 µM | [3] > 100 µM | [4] > 100 µM | [5] > 100 µM | [6] > 100 µM | [7] > 100 µM | [8] > 100 µM | [9] > 100 µM | [10] > 100 µM | [11] > 100 µM | [12] > 100 µM | [13] > 100 µM | [14] > 100 µM | [15] > 100 µM | [16] > 100 µM | [17] > 100 µM | [18] 84.3 µM | [19] 43.5 µM

C[C@]12C=CC(=O)C=C1CC[C@@H]1[C@@H]2C(=O)C[C@@]2(C)[C@H]1CC[C@]2(O)C(=O)CO [PREDNISONE]
inactive: [1] > 100 µM | [2] > 100 µM | [3] > 100 µM | [4] > 100 µM | [5] > 100 µM | [6] > 100 µM | [7] > 100 µM | [8] > 100 µM | [9] > 100 µM | [10] > 100 µM | [11] > 100 µM | [12] > 100 µM | [13] > 100 µM | [14] > 100 µM | [15] > 100 µM | [16] > 100 µM | [17] > 100 µM | [18] > 100 µM | [19] > 100 µM

COC(=O)c1c2n(c3ccccc13)C[C@H]1OC(C)(C)O[C@@H]21
inactive: [1] > 100 µM | [2] > 100 µM | [3] > 100 µM | [4] > 100 µM | [5] > 100 µM | [6] > 100 µM | [7] > 100 µM | [8] > 100 µM | [9] > 100 µM | [10] > 43.8 µM | [11] > 100 µM | [12] > 100 µM | [13] > 47 µM | [14] > 100 µM | [15] > 100 µM | [16] > 100 µM | [17] > 100 µM | [18] > 100 µM | [19] > 100 µM

CC1=C(C#N)C(=O)N(/N=C/c2ccc(Cl)cc2)C(=O)/C1=c1\o/c(=C2/C(=O)N(/N=C/c3ccc(Cl)cc3)C(=O)C(C#N)=C2C)c2nccnc12
inactive: [1] > 100 µM | [2] > 100 µM | [3] > 100 µM | [4] > 100 µM | [5] 42.2 µM | [6] > 100 µM | [7] 21.2 µM | [8] > 100 µM | [9] 69.7 µM | [10] 47.1 µM | [11] > 100 µM | [12] 88.3 µM | [13] > 100 µM | [14] 57.5 µM | [15] > 100 µM | [16] > 100 µM | [17] > 100 µM | [18] 15.3 µM | [19] > 100 µM

CCOC(=O)C(CC(C)C)NC(=O)CSc1nnc(COc2ccc(Cl)cc2)n1-c1ccccc1 (stereo not drawn)
inactive: [1] 15.3 µM | [2] 12.7 µM | [3] 13.3 µM | [4] 18.2 µM | [5] 10.4 µM | [6] 18.5 µM | [7] 22.3 µM | [8] 15.4 µM | [9] 19.3 µM | [10] 18 µM | [11] 16.9 µM | [12] 4.51 µM | [13] 19.3 µM | [14] 16.2 µM | [16] 21.8 µM | [17] 16.3 µM | [18] 16.5 µM | [19] 11.2 µM

COC(OC)[C@@H]1OC[C@@H](O)[C@@H]1n1cnc2c(N)ncnc21
inactive: [1] > 100 µM | [2] > 100 µM | [3] > 100 µM | [4] > 100 µM | [5] > 100 µM | [6] > 100 µM | [7] > 100 µM | [8] > 100 µM | [9] > 100 µM | [10] > 100 µM | [11] > 100 µM | [12] > 100 µM | [13] > 100 µM | [14] > 100 µM | [16] > 100 µM | [17] > 100 µM | [18] > 100 µM | [19] > 100 µM
